pIC50: −log10 of the molar value.
Experiments:
[1] = biological target: T1, Human PDGFRα, cytoplasmic domain (GST-PDGFRα) (Homo sapiens, UniProt P16234); assay: Human PDGFRα biochemical inhibition assay (off-chip Mobility Shift Assay)
T1 construct: made in house

[2] = biological target: T2, Human PDGFRβ, cytoplasmic domain (GST-PDGFRβ) (Homo sapiens, UniProt P09619); assay: Human PDGFRβ biochemical inhibition assay (off-chip Mobility Shift Assay)
T2 construct: made in house
Summary of the method: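 GST-tagged cytoplasmic domain (aa 557-1106) from baculovirus was incubated 1 h at room temperature with compound, CSKtide, ATP at Km and Mg²⁺ in HEPES buffer, pH 7.5. Phosphorylated and unphosphorylated peptide were separated by off-chip mobility shift, and the product ratio P/(P+S) gave percent inhibition.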

T2 sequence (P09619 with tags, fused parts or gaps): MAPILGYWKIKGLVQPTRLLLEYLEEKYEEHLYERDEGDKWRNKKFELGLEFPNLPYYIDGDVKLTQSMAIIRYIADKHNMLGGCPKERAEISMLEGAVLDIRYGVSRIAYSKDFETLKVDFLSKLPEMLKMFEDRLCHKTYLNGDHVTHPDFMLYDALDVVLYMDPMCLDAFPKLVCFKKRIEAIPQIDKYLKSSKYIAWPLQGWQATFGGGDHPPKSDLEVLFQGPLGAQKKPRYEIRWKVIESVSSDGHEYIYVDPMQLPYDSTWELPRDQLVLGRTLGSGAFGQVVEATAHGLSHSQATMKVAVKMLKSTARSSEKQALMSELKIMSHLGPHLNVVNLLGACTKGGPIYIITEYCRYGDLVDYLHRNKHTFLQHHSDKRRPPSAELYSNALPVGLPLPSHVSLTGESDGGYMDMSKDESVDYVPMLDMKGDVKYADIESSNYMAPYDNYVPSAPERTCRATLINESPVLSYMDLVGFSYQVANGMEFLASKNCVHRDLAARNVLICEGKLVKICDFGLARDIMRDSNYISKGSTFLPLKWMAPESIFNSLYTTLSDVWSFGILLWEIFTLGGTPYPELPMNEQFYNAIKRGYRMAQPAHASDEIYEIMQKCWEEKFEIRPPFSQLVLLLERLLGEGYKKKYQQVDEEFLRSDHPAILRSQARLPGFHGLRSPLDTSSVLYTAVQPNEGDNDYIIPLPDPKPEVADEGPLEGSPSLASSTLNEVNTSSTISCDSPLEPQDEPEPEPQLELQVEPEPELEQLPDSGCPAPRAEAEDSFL
T1 sequence (P16234 550-1089 T674I): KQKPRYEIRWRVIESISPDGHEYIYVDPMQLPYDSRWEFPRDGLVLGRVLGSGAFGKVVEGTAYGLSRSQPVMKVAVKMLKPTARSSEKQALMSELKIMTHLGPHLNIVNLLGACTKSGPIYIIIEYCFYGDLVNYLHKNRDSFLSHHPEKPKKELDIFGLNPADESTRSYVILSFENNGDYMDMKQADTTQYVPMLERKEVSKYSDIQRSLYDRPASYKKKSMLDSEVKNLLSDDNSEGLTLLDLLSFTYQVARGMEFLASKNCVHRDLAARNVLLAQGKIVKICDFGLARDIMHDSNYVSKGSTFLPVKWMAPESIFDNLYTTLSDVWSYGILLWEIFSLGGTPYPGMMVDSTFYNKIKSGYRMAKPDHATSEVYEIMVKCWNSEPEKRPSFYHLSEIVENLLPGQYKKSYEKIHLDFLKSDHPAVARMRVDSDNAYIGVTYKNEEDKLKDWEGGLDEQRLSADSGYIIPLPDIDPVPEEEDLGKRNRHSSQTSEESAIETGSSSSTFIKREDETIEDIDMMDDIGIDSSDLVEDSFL

pIC50 [1] | pIC50 [2] | Compound
> 6.52 | ≤ 6.00 | Cc1cncc(C(=O)Nc2cccc([C@H](C)Nc3cnc4c(n3)CCCC4)c2)c1 [Compound 44, (S)-5-methyl-N-(3-(1-((5,6,7,8-tetrahydroquinoxalin-2-yl)amino)ethyl)phenyl) nicotinamide]
> 6.52 | > 6.52 | Cc1cncc(C(=O)Nc2ccc(F)c([C@H](C)Nc3cnc4cn(CC5CCNC5)nc4n3)c2)c1 (stereo partly drawn) [Compound 410, N-(4-fluoro-3-((1S)-1-((2-(pyrrolidin-3-ylmethyl)-2H-pyrazolo[3,4-b]pyrazin-6-yl)amino)ethyl)phenyl)-5-methylnicotinamide]
> 6.52 | ≤ 6.00 | CCn1cc2ncc(N[C@@H](C)c3cc(NC(=O)Cc4ccc(C)nc4)ccc3F)nc2n1 [Compound 651, (S)-N-(3-(1-((2-ethyl-2H-pyrazolo[3,4-b]pyrazin-6-yl)amino)ethyl)-4-fluorophenyl)-2-(6-methylpyridin-3-yl) acetamide]
> 6.52 | 6.00 to 6.52 | CCn1cc2ncc(N[C@@H](C)c3cccc(NC(=O)c4cnc(C)c(F)c4)c3)nc2n1 [Compound 419, (S)-N-(3-(1-((2-ethyl-2H-pyrazolo[3,4-b]pyrazin-6-yl)amino)ethyl)phenyl)-5-fluoro-6-methylnicotinamide]
> 6.52 | > 6.52 | CCNc1ncc(C(=O)Nc2ccc(C)c([C@H](C)Nc3cnc4cn(CC)nc4n3)c2)cc1C [Compound 513, (S)-N-(3-(1-((2-ethyl-2H-pyrazolo[3,4-b]pyrazin-6-yl)amino)ethyl)-4-methylphenyl)-6-(ethylamino)-5-methylnicotinamide]
> 6.52 | > 6.52 | Cc1cncc(C(=O)Nc2ccc(F)c([C@H](C)Nc3cnc4cn(CC5CNCCO5)nc4n3)c2)c1 (stereo partly drawn) [Compound 411, N-(4-fluoro-3-((1S)-1-((2-(morpholin-2-ylmethyl)-2H-pyrazolo[3,4-b]pyrazin-6-yl)amino)ethyl)phenyl)-5-methylnicotinamide]
> 6.52 | ≤ 6.00 | CCn1cc2ncc(N[C@@H](C)c3cc(NC(=O)Cc4cncc(F)c4)ccc3F)nc2n1 [Compound 653, (S)-N-(3-(1-((2-ethyl-2H-pyrazolo[3,4-b]pyrazin-6-yl)amino)ethyl)-4-fluorophenyl)-2-(5-fluoropyridin-3-yl)acetamide]
> 6.52 | > 6.52 | CCn1cc2ncc(N[C@@H](C)c3cccc(NC(=O)c4ccc(C=O)c(C)c4)c3)nc2n1 [Compound 401, (S)-N-(3-(1-((2-ethyl-2H-pyrazolo[3,4-b]pyrazin-6-yl)amino)ethyl)phenyl)-4-formyl-3-methylbenzamide]
> 6.52 | 6.00 to 6.52 | CCn1cc2ncc(N[C@@H](C)c3cc(NC(=O)c4ccc(C(F)(F)F)nc4)c(F)cc3F)nc2n1 [Compound 492, (S)-N-(5-(1-((2-ethyl-2H-pyrazolo[3,4-b]pyrazin-6-yl)amino)ethyl)-2,4-difluorophenyl)-6-(trifluoromethyl)nicotinamide]

Further lines, the compound ahead of its results:

Compound | pIC50 [1] | pIC50 [2]
Cc1n[nH]c2ncc(N[C@@H](C)c3cccc(NC(=O)c4ccc(C5CC5)nc4)c3)nc12 [Compound 535, (S)-6-cyclopropyl-N-(3-(1-((3-methyl-1H-pyrazolo[3,4-b]pyrazin-5-yl)amino)ethyl)phenyl)nicotinamide] | > 6.52 | > 6.52
Cc1n[nH]c2ncc(N[C@@H](C)c3cccc(NC(=O)c4cnn(C5CC5)c4)c3)nc12 [Compound 543, (S)-1-cyclopropyl-N-(3-(1-((3-methyl-1H-pyrazolo[3,4-b]pyrazin-5-yl)amino)ethyl)phenyl)-1H-pyrazole-4-carboxamide] | > 6.52 | > 6.52
CCn1cc2ncc(N[C@@H](C)c3cccc(NC(=O)Cc4cc(F)cc(F)c4)c3)nc2n1 [Compound 643, (S)-2-(3,5-difluorophenyl)-N-(3-(1-((2-ethyl-2H-pyrazolo[3,4-b]pyrazin-6-yl)amino)ethyl)phenyl)acetamide] | > 6.52 | 6.00 to 6.52
CCn1cc2ncc(N[C@@H](C)c3cccc(NC(=O)Cc4ccc5c(n4)CCC5)c3)nc2n1 [Compound 718, (S)-2-(6,7-dihydro-5H-cyclopenta[b]pyridin-2-yl)-N-(3-(1-((2-ethyl-2H-pyrazolo[3,4-b]pyrazin-6-yl)amino)ethyl)phenyl)acetamide] | > 6.52 | ≤ 6.00
CCn1cc2ncc(N[C@@H](C)c3cccc(NC(=O)Nc4ccc(OC(F)(F)F)nc4)c3)nc2n1 [Compound 407, (S)-1-(3-(1-((2-ethyl-2H-pyrazolo[3,4-b]pyrazin-6-yl)amino)ethyl)phenyl)-3-(6-(trifluoromethoxy)pyridin-3-yl) urea] | > 6.52 | > 6.52
CCn1cc2ncc(N[C@@H](C)c3cccc(NC(=O)c4ccc(CN5C[C@@H](C)O[C@@H](C)C5)c(C)c4)c3)nc2n1 [Compound 478, 4-(((2S,6R)-2,6-dimethylmorpholino)methyl)-N-(3-((S)-1-((2-ethyl-2H-pyrazolo[3,4-b]pyrazin-6-yl)amino)ethyl)phenyl)-3-methylbenzamide] | > 6.52 | 6.00 to 6.52
CCn1cc2ncc(N[C@@H](C)c3cccc(NC(=O)c4ccc(C(F)(F)F)c(Cl)c4)c3)nc2n1 [Compound 438, (S)-3-chloro-N-(3-(1-((2-ethyl-2H-pyrazolo[3,4-b]pyrazin-6-yl)amino)ethyl)phenyl)-4-(trifluoromethyl)benzamide] | > 6.52 | > 6.52
CCn1cc2ncc(N[C@@H](C)c3cccc(NC(=O)c4cnc(C(C)C)s4)c3)nc2n1 [Compound 349, (S)-N-(3-(1-((2-ethyl-2H-pyrazolo[3,4-b]pyrazin-6-yl)amino)ethyl)phenyl)-2-isopropylthiazole-5-carboxamide] | > 6.52 | > 6.52
C[C@H](Nc1cnc2cnn(C)c2n1)c1cccc(NC(=O)c2ccc(NC3CC3)nc2)c1 [Compound 121, (S)-6-(cyclopropylamino)-N-(3-(1-((1-methyl-1H-pyrazolo[3,4-6]pyrazin-6-yl)amino)ethyl)phenyl)nicotinamide] | > 6.52 | > 6.52
Cc1n[nH]c2ncc(N[C@@H](C)c3cccc(NC(=O)c4cnn(CCF)c4)c3)nc12 [Compound 544, (S)-1-(2-fluoroethyl)-N-(3-(1-((3-methyl-1H-pyrazolo[3,4-b]pyrazin-5-yl)amino)ethyl)phenyl)-1H-pyrazole-4-carboxamide] | > 6.52 | > 6.52
CCn1cc2ncc(N[C@@H](C)c3cccc(NC(=O)c4ccc(CN5CCCC5)nc4)c3)nc2n1 [Compound 388, (S)-N-(3-(1-((2-ethyl-2H-pyrazolo[3,4-b]pyrazin-6-yl)amino)ethyl)phenyl)-6-(pyrrolidin-1-ylmethyl) nicotinamide] | ≤ 6.00 | ≤ 6.00
CCn1cc2ncc(N[C@@H](C)c3cccc(NC(=O)Nc4ccc(C(F)(F)F)nc4)c3)nc2n1 [Compound 736, (S)-1-(3-(1-((2-ethyl-2H-pyrazolo[3,4-b]pyrazin-6-yl)amino)ethyl)phenyl)-3-(6-(trifluoromethyl)pyridin-3-yl) urea] | > 6.52 | > 6.52
CCn1cc2ncc(N[C@@H](C)c3cccc(NC(=O)c4ccc(CN5CCC6(CC5)COC6)c(C)c4)c3)nc2n1 [Compound 480, (S)-4-((2-oxa-7-azaspiro[3.5]nonan-7-yl)methyl)-N-(3-(1-((2-ethyl-2H-pyrazolo[3,4-b]pyrazin-6-yl)amino)ethyl)phenyl)-3-methylbenzamide] | > 6.52 | 6.00 to 6.52
Cc1cncc(C(=O)Nc2cccc([C@H](C)Nc3cnn4cc(-c5cnn(C)c5)ccc34)c2)c1 [Compound 746, (S)-5-methyl-N-(3-(1-((6-(1-methyl-1H-pyrazol-4-yl)pyrazolo[1,5-a]pyridin-3-yl)amino)ethyl)phenyl) nicotinamide] | > 6.52 | > 6.52
CC(C)n1cc(C(=O)Nc2cccc([C@H](C)Nc3cnc4cn[nH]c4n3)c2)cn1 [Compound 100, (S)-N-(3-(1-((1H-pyrazolo[3,4-b]pyrazin-6-yl)amino)ethyl)phenyl)-1-isopropyl-1H-pyrazole-4-carboxamide] | > 6.52 | > 6.52
Cc1cncc(C(=O)Nc2cccc([C@H](C)Nc3cnc4[nH]cc(-c5cncnc5)c4n3)c2)c1 [Compound 593, (S)-5-methyl-N-(3-(1-((7-(pyrimidin-5-yl)-5H-pyrrolo [2,3-b]pyrazin-2-yl)amino)ethyl)phenyl)nicotinamide] | > 6.52 | > 6.52
Cc1cncc(C(=O)Nc2cccc([C@H](C)Nc3cnc4[nH]cc(-c5ccncc5)c4n3)c2)c1 [Compound 592, (S)-5-methyl-N-(3-(1-((7-(pyridin-4-yl)-5H-pyrrolo[2,3-b]pyrazin-2-yl)amino)ethyl)phenyl)nicotinamide] | > 6.52 | > 6.52
COc1cncc(C(=O)Nc2cccc([C@H](C)Nc3cnc4[nH]nc(C)c4n3)c2)c1 [Compound 531, (S)-5-methoxy-N-(3-(1-((3-methyl-1H-pyrazolo[3,4-b]pyrazin-5-yl)amino)ethyl)phenyl)nicotinamide] | > 6.52 | > 6.52
Cc1cncc(C(=O)Nc2cccc([C@H](C)Nc3cnc4[nH]c(=O)n(C)c4n3)c2)c1 [Compound 12, (S)-5-methyl-N-(3-(1-((3-methyl-2-oxo-2,3-dihydro-1H-imidazo[4,5-b]pyrazin-5-yl)amino)ethyl)phenyl)nicotinamide] | > 6.52 | > 6.52
C[C@H](Nc1cnc2cc(C3CC3)sc2n1)c1cc(NC(=O)c2ccc(C(F)(F)F)nc2)ccc1F [Compound 616, (S)-N-(3-(1-((6-cyclopropylthieno[2,3-b]pyrazin-3-yl)amino)ethyl)-4-fluorophenyl)-6-(trifluoromethyl)nicotinamide] | > 6.52 | > 6.52

From patent publication US20230102554A1 (GB002, INC., priority 2019, published 2023)
